Measured values reported in patent US8071605B2, “Piperidine compounds for use in the treatment of bacterial infections” (AstraZeneca AB, priority 2008, dated 2011).

Molecular target: S. aureus GyrB ATPase (Staphylococcus aureus, UniProt P0A0K8)
Assay: S. aureus GyrB ATPase inhibition (ammonium molybdate/malachite green phosphate detection)
Assay type: biochemical
Conditions: compound concentration of 1 μM (unless otherwise noted)
Protocol: E. coli GyrB ATPase Inhibition Activity: Compounds can be tested for inhibition of E. coli GyrB ATPase activity using an ammonium molybdate/malachite green-based phosphate detection assay (Lanzetta, P. A., L. J. Alvarez, P. S. Reinach, and O. A. Candia, 1979, 100: 95-97). Assays can be performed in multiwell plates in 30 μl reactions containing: 50 mM Hepes buffer pH 7.5, 75 mM ammonium acetate, 8.0 mM magnesium chloride, 0.5 mM ethylenediaminetetraacetic acid, 5% glycerol, 1 mM 1,4-Dithio-DL-threitol, 200 nM bovine serum albumin, 1.6 μg/ml sheared salmon sperm DNA, 400 pM E. coli GyrA, 400 pM E. coli GyrB, 250 μM ATP, and compound in dimethylsulfoxide. Reactions can be quenched with 30 μl of ammonium molybdate/malachite green detection reagent containing 1.2 mM malachite green hydrochloride, 8.5 mM ammonium molybdate tetrahydrate, and 1 M hydrochloric acid. Plates can be read in an absorbance plate reader at 650 nm and percent inhibition values are calculated using dimethylsulfoxide (2%)-containing reactions as 0% inhibition and EDTA-containing (2.4 μM) reactions as 100% inhibition controls. An IC50 measurement of compound potency for each compound can be determined from reactions performed in the presence of 10 different compound concentrations. E. coli Topoisomerase IV ATPase Inhibition Activity: Compounds can be tested for inhibition of E. coli topoisomerase IV ATPase activity as described above for E. coli GyrB except the 30 μl reactions contained the following: 20 mM TRIS buffer pH 8, 50 mM ammonium acetate, 8 mM magnesium chloride, 5% glycerol, 5 mM 1,4-Dithio-DL-threitol, 0.005% Brij-35, 5 μg/ml sheared salmon sperm DNA, 500 pM E. coli ParC, 500 pM E. coli ParE, 160 μM ATP, and compound in dimethylsulfoxide. An IC50 measurement of compound potency for each compound can be determined from reactions performed in the presence of 10 different compound concentrations. S. aureus GyrB ATPase Inhibition Activity: Compounds may be tested for inhibition of S. aureus GyrB ATPase activity using an ammonium molybdate/malachite green-based phosphate detection assay (Lanzetta, P. A., L. J. Alvarez, P. S. Reinach, and O. A. Candia, 1979, 100: 95-97). Assays can be performed in multiwell plates in 30 μl reactions containing: 50 mM Hepes buffer pH 7.5, 75 mM ammonium acetate, 8.0 mM magnesium chloride, 0.5 mM ethylenediaminetetraacetic acid, 5% glycerol, 1.0 mM 1,4-Dithio-DL-threitol, 200 nM bovine serum albumin, 1.0 μg/ml sheared salmon sperm DNA, 250 pM E. coli GyrA, 250 pM S. aureus GyrB, 250 μM ATP, and compound in dimethylsulfoxide. Reactions can be quenched with 30 μl of ammonium molybdate/malachite green detection reagent containing 1.2 mM malachite green hydrochloride, 8.5 mM ammonium molybdate tetrahydrate, and 1 M hydrochloric acid. Plates can be read in an absorbance plate reader at 650 nm and percent inhibition values can be calculated using dimethylsulfoxide (2%)-containing reactions as 0% inhibition and EDTA-containing (2.4 μM) reactions as 100% inhibition controls. An IC50 measurement of compound potency for each compound can be determined from reactions performed in the presence of 10 different compound concentrations.
Compounds of the invention were tested in an assay substantially similar to the assay described above for measuring the inhibition of S. aureus GyrB ATPase. Percent inhibition of S. aureus GyrB ATPase at a compound concentration of 1 μM (unless otherwise noted) is disclosed in the following table: […]

Sequence of S. aureus GyrB ATPase (P0AES4 whole entry): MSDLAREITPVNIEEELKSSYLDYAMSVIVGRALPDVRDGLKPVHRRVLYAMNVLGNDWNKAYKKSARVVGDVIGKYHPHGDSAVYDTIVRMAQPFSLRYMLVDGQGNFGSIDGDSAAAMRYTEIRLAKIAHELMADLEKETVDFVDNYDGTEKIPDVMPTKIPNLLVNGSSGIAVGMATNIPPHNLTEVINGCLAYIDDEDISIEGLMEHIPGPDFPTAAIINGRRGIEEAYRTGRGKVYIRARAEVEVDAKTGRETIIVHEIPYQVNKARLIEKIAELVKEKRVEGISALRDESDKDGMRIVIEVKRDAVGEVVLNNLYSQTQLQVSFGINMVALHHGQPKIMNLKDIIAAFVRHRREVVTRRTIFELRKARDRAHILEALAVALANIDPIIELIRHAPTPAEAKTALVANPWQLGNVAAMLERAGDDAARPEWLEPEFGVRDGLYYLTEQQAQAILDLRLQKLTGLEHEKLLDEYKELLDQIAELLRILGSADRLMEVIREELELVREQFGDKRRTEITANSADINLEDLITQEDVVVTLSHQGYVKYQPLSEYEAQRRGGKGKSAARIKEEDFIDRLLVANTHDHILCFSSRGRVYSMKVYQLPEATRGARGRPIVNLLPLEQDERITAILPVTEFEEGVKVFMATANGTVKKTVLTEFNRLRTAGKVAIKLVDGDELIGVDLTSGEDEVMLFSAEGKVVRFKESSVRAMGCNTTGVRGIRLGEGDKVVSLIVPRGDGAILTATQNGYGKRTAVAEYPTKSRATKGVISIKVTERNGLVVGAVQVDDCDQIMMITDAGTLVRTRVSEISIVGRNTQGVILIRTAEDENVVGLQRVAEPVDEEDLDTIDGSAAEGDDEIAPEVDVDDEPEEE
Sequence of S. aureus GyrB ATPase (P0A0K8 whole entry): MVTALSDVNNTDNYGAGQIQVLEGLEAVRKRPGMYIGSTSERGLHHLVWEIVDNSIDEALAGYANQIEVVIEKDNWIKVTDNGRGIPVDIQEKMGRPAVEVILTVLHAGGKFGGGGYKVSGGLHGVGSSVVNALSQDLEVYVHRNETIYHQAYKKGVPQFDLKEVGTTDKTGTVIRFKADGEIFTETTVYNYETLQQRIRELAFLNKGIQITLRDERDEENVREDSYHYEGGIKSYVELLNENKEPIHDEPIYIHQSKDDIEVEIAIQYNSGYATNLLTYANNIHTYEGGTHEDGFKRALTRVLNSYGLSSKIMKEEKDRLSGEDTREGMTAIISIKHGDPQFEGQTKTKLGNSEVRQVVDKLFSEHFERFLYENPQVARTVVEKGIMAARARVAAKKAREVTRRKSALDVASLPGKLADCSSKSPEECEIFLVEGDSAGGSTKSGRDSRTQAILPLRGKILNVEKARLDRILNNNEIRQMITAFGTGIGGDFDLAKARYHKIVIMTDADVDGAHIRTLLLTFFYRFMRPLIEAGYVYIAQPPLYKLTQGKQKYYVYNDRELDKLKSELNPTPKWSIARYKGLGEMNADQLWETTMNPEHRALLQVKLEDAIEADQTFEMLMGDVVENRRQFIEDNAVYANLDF

Compound | inhibition at 1 µM [%]
CO[C@@H]1CN(c2nc(-c3cnc(N4CCN(C)CC4)cn3)c(C(=O)O)s2)CC[C@@H]1NC(=O)c1[nH]c(C)c(Cl)c1Cl [Example 61, 2-[(3R,4S)-4-{[(3,4-dichloro-5-methyl-1H-pyrrol-2-yl)carbonyl]amino}-3-methoxypiperidin-1-yl]-4-[5-(4-methylpiperazin-1-yl)pyrazin-2-yl]-1,3-thiazole-5-carboxylic acid] | 105
C=CCO[C@H]1CN(c2nc(-c3ncnn3C)c(C(=O)O)s2)CC[C@H]1NC(=O)c1[nH]c(C)c(Cl)c1Cl [Example 1, 2-[(3S,4R)-4-{[(3,4-dichloro-5-methyl-1H-pyrrol-2-yl)carbonyl]amino}-3-(prop-2-en-1-yloxy)piperidin-1-yl]-4-(1-methyl-1H-1,2,4-triazol-5-yl)-1,3-thiazole-5-carboxylic acid] | 99
CO[C@H]1CN(c2nc(-c3cnc(OCCC4CCN(C)CC4)cn3)c(C(=O)O)s2)CC[C@H]1NC(=O)c1[nH]c(C)c(Cl)c1Cl [Example 65] | 107
CCN(CC)CCN1CCN(c2cnc(-c3nc(N4CC[C@@H](NC(=O)c5[nH]c(C)c(Cl)c5Cl)[C@@H](C)C4)sc3C(=O)O)cn2)CC1 [Example 180, 2-[(3S,4R)-4-{[(3,4-dichloro-5-methyl-1H-pyrrol-2-yl)carbonyl]amino}-3-methylpiperidin-1-yl]-4-(5-{4-[2-(diethylamino)ethyl]piperazin-1-yl}pyrazin-2-yl)-1,3-thiazole-5-carboxylic acid] | 103
COCC(COC)Nc1cnc(-c2nc(N3CC[C@@H](NC(=O)c4[nH]c(C)c(Cl)c4Cl)[C@@H](OC)C3)sc2C(=O)O)cn1 [Example 129] | 103
CCO[C@H]1CN(c2nc(-c3ncnn3C)c(C(=O)O)s2)CC[C@H]1NC(=O)c1cc(Cl)c(C)[nH]1 [Example 16] | 103
CCO[C@H]1CN(c2nc(-c3cnccn3)c(C(=O)O)s2)CC[C@H]1NC(=O)c1[nH]c(C)c(Cl)c1Cl [Example 11] | 101
Cc1[nH]c(C(=O)N[C@@H]2CCN(c3nc(-c4cnc(NCCN5CCNC5=O)cn4)c(C(=O)O)s3)C[C@@H]2C)c(Cl)c1Cl [Example 173, 2-[(3S,4R)-4-{[(3,4-dichloro-5-methyl-1H-pyrrol-2-yl)carbonyl]amino}-3-methylpiperidin-1-yl]-4-(5-{[2-(2-oxoimidazolidin-1-yl)ethyl]amino}pyrazin-2-yl)-1,3-thiazole-5-carboxylic acid] | 104
CCO[C@H]1CN(c2nc(-c3cnc(N4CCN(CC5CCCCC5)CC4)cn3)c(C(=O)O)s2)CC[C@H]1NC(=O)c1[nH]c(C)c(Cl)c1Cl [Example 98] | 116
CCO[C@H]1CN(c2nc(-c3cnccn3)c(C(=O)O)s2)CC[C@H]1NC(=O)c1cc(Cl)c(C)[nH]1 [Example 18] | 108
Cc1[nH]c(C(=O)N[C@@H]2CCN(c3nc(-c4cnc(N5CCN(CC6CCCO6)CC5)cn4)c(C(=O)O)s3)C[C@@H]2C)c(Cl)c1Cl (stereo partly drawn) [Example 183, 2-[(3S,4R)-4-{[(3,4-dichloro-5-methyl-1H-pyrrol-2-yl)carbonyl]amino}-3-methylpiperidin-1-yl]-4-{5-[4-(tetrahydrofuran-2-ylmethyl)piperazin-1-yl]pyrazin-2-yl}-1,3-thiazole-5-carboxylic acid] | 116
CO[C@H]1CN(c2nc(-c3nccc(N4CCN(CC(C)C)CC4)n3)c(C(=O)O)s2)CC[C@H]1NC(=O)c1[nH]c(C)c(Cl)c1Cl [Example 192, 2-[(3S,4R)-4-{[(3,4-dichloro-5-methyl-1H-pyrrol-2-yl)carbonyl]amino}-3-methoxypiperidin-1-yl]-4-{4-[4-(2-methylpropyl)piperazin-1-yl]pyrimidin-2-yl}-1,3-thiazole-5-carboxylic acid] | 108
CO[C@H]1CN(c2nc(-c3cnc(N4CCCCC4)cn3)c(C(=O)O)s2)CC[C@H]1NC(=O)c1[nH]c(C)c(Cl)c1Cl [Example 124] | 112
CO[C@H]1CN(c2nc(-c3cnc(NCCN(C)C)cn3)c(C(=O)O)s2)CC[C@H]1NC(=O)c1[nH]c(C)c(Cl)c1Cl [Example 132] | 103
Cc1[nH]c(C(=O)N[C@@H]2CCN(c3nc(-c4cnc(N5CCN(CC6CCCCC6)CC5)cn4)c(C(=O)O)s3)C[C@@H]2C)c(Cl)c1Cl [Example 178, 4-{5-[4-(cyclohexylmethyl)piperazin-1-yl]pyrazin-2-yl}-2-[(3S,4R)-4-{[(3,4-dichloro-5-methyl-1H-pyrrol-2-yl)carbonyl]amino}-3-methylpiperidin-1-yl]-1,3-thiazole-5-carboxylic acid] | 102
CCO[C@H]1CN(c2nc(-c3cnc(N4CCN(C(CC)CC)CC4)cn3)c(C(=O)O)s2)CC[C@H]1NC(=O)c1[nH]c(C)c(Cl)c1Cl [Example 99] | 106
CCCO[C@H]1CN(c2nc(-c3ncnn3C)c(C(=O)O)s2)CC[C@H]1NC(=O)c1[nH]c(C)c(Cl)c1Cl [Example 215] | 106
CCN1CCN(c2cnc(-c3nc(N4CC[C@@H](NC(=O)c5[nH]c(C)c(Cl)c5Cl)[C@@H](OC)C4)sc3C(=O)O)cn2)CC1 [Example 138] | 103
Cc1[nH]c(C(=O)N[C@@H]2CCN(c3nc(-c4cnc(NCCN5CCN(C)CC5)cn4)c(C(=O)O)s3)C[C@@H]2C)c(Cl)c1Cl [Example 175, 2-[(3S,4R)-4-{[(3,4-dichloro-5-methyl-1H-pyrrol-2-yl)carbonyl]amino}-3-methylpiperidin-1-yl]-4-(5-{[2-(4-methylpiperazin-1-yl)ethyl]amino}pyrazin-2-yl)-1,3-thiazole-5-carboxylic acid] | 106
CCO[C@H]1CN(c2nc(-c3cnc(NCCOC)cn3)c(C(=O)O)s2)CC[C@H]1NC(=O)c1[nH]c(C)c(Cl)c1Cl [Example 90] | 103
Cc1[nH]c(C(=O)N[C@@H]2CCN(c3nc(-c4cnc(NCCN5CCOCC5)cn4)c(C(=O)O)s3)C[C@@H]2C)c(Cl)c1Cl [Example 171, 2-[(3S,4R)-4-{[(3,4-dichloro-5-methyl-1H-pyrrol-2-yl)carbonyl]amino}-3-methylpiperidin-1-yl]-4-(5-{[2-(morpholin-4-yl)ethyl]amino}pyrazin-2-yl)-1,3-thiazole-5-carboxylic acid] | 101
COCCNc1cnc(-c2nc(N3CC[C@@H](NC(=O)c4[nH]c(C)c(Cl)c4Cl)[C@@H](OC)C3)sc2C(=O)O)cn1 [Example 128] | 110
CCN1CCN(c2cnc(-c3nc(N4CC[C@@H](NC(=O)c5[nH]c(C)c(Cl)c5Cl)[C@@H](C)C4)sc3C(=O)O)cn2)CC1 [Example 164, 2-[(3S,4R)-4-{[(3,4-dichloro-5-methyl-1H-pyrrol-2-yl)carbonyl]amino}-3-methylpiperidin-1-yl]-4-[5-(4-ethylpiperazin-1-yl)pyrazin-2-yl]-1,3-thiazole-5-carboxylic acid] | 117
CCCO[C@H]1CN(c2nc(-c3ncccc3F)c(C(=O)O)s2)CC[C@H]1NC(=O)c1[nH]c(C)c(Cl)c1Cl [Example 217, 2-[(3S,4R)-4-{[(3,4-dichloro-5-methyl-1H-pyrrol-2-yl)carbonyl]amino}-3-propoxypiperidin-1-yl]-4-(3-fluoropyridin-2-yl)-1,3-thiazole-5-carboxylic acid] | 113
CO[C@H]1CN(c2nc(-c3cnc(NCC4CN5CCN4CC5)cn3)c(C(=O)O)s2)CC[C@H]1NC(=O)c1[nH]c(C)c(Cl)c1Cl (stereo partly drawn) [Example 195, 4-{5-[(1,4-diazabicyclo[2.2.2]oct-2-ylmethyl)amino]pyrazin-2-yl}-2-[(3S,4R)-4-{[(3,4-dichloro-5-methyl-1H-pyrrol-2-yl)carbonyl]amino}-3-methoxypiperidin-1-yl]-1,3-thiazole-5-carboxylic acid] | 118
C=CCO[C@H]1CN(c2nc(-c3nccn3CCOC)c(C(=O)O)s2)CC[C@H]1NC(=O)c1[nH]c(C)c(Cl)c1Cl [Example 2] | 103
